Measurements as given in PMC9551036, “A selective and orally bioavailable VHL-recruiting PROTAC achieves SMARCA2 degradation in vivo” (Nature Communications, 2022).
≈ marks a conversion by molar mass, not a printed value. Where “and” joins values, the source holds several entries; their conditions need not be identical. Identical values can stand only once. Like-named read-outs stand apart in the source and are kept apart here.

Key:
Microsomal stability = assay type: in vitro ADME; conditions: for Mic. Stab. Human / Mic. Stab. Human QH: human liver microsomes; for Mic. Stab. Mouse / Mic. Stab. Mouse QH: mouse liver microsomes; for Mic. Stab. Rat / Mic. Stab. Rat QH: rat liver microsomes
Procedure: […] Reactions were terminated by addition of acetonitrile and precipitates separated by centrifugation. Compound concentrations in supernatants were measured by HPLC-MS/MS and clearance was calculated from compound half-lives using the well-stirred liver model.

Solubility testing = assay type: physicochemical; conditions: for solubility at 24 h: buffer, kinetic from dmso stock
Procedure: Dilution into a 1:1 mixture of acetonitrile and water was used as reference. After 24 h, the incubations were filtrated, and the filtrate was analyzed by LC-UV.

[1] = molecular target: VCB: PROTAC: SMARCA2^BD ternary complex (Homo sapiens, UniProt P40337+P51531); assay: TR-FRET ternary complex affinity and cooperativity, SMARCA2; assay type: binding; design: P51531-2, residues 1373-1493 with additional N-terminal SM residues; GST (TEV site) (N); His6 (TEV site) (N, cleaved yes); made in house; host or cells: SMARCA2^BD: Escherichia coli BL21(DE3)
[2] = molecular target: T1, VCB: PROTAC: SMARCA2^BD ternary complex (Homo sapiens, UniProt P51531); assay: as above; assay type: binding
T1 construct: P51531-2, residues 1373-1493 with additional N-terminal SM residues; GST (TEV site) (N); His6 (TEV site) (N, cleaved yes); made in house; host or cells: SMARCA2^BD: Escherichia coli BL21(DE3)

[3] = tested on: VCB: PROTAC: SMARCA2^BD ternary complex; assay: as above; assay type: binding, human; conditions: ratio TR-FRET EC50 / TR-FRET EC50 +VCB measured in the same run, SMARCA2BD
[4] = Bidirectional permeability measurement in Caco-2 cells; assay type: in vitro ADME; conditions: human
Procedure: Bidirectional permeability of test compounds across a Caco-2 cell monolayer was measured as described[43] with a modification of preincubation time[44]: Briefly, Caco-2 cells were seeded onto Transwell inserts (#3379, Corning, Wiesbaden, Germany) at a density of 160000 cells/cm^2 and cultured in DMEM (high glucose) containing 10% fetal bovine serum for 14–21 days. Cells were incubated with culture media containing 1 µM test compound for 24 h. […] Samples were taken at different time points for up to 2 h. Test compound in the samples was quantified with LC-MS/MS. To elucidate the role of drug transporter P-gp in the transcellular transport, permeability measurement was performed in the absence and presence of the selective P-gp inhibitor zosuquidar (5 µM final concentration). Apparent permeability coefficients (Papp,AB, Papp,BA) were calculated as follows:1 Papp,AB=Q_AB/C0×s×t 2 Papp,BA=Q_BA/C0×s×t where Q is the amount of compound recovered in the receiver compartment after the incubation time t, C0 the initial compound concentration given to the donor compartment, and s the surface area of the Transwell inserts. Efflux ratio is calculated as the quotient of Papp,BA (mean of duplicate) to Papp,AB (mean of duplicate). […] In addition, Transepithelial electrical resistance (TEER) values were measured for each plate before the permeability assay. All three parameters (efflux of the reference substrates, Papp values of the low permeable compound, and TEER values) were used to ensure the quality of the assays.

SMARCA2^BD = molecular target: T2, SMARCA2^BD (Homo sapiens, UniProt P51531); assay: SPR binding to immobilised SMARCA2 bromodomain; conditions: benzoxazinone lead series, Fig. 1b; read-out: SMARCA2^BD SPR KD
T2 construct: P51531-2, residues 1373-1493 with additional N-terminal SM residues; GST (TEV site) (N, cleaved yes); made in house; host or cells: Escherichia coli BL21(DE3)
Procedure: SMARCA4^BD was provided by the Structural Genomics Consortium (SGC), Toronto[32] and SMARCA2^BD and PRM1^BD5 were synthesised by GeneArt then subcloned into pDEST15 vectors (Invitrogen). The VCB complex was expressed and purified as described previously, with the modification that 0.3 mM IPTG was used for induction of expression. […] Both were stored in 20 mM 4-(2-hydroxyethyl)−1-piperazineethanesulfonic acid (HEPES), 150 mM sodium chloride and 1 mM tris(2-carboxyethyl)phosphine (TCEP) pH 7.5. SMARCA2^BD, SMARCA4^BD and PBRM1^BD5 were expressed in Escherichia coli BL21(DE3) as N-terminal GST fusion proteins with a TEV protease cleavage site. Expression and purification of these proteins has been described previously[32],[33]. Starter cultures were grown overnight at 37 °C in 10 mL of Luria-Bertani (LB) medium with ampicillin (100 μg/mL). The starter cultures were diluted (1:100) in Terrific Broth (TB) medium with ampicillin (100 μg/mL) and grown in a shaking incubator at 37 °C to an optical density (OD600) ~1 before the temperature was lowered for induction (to 23 °C for SMARCA2^BD or 18 °C for SMARCA4^BD and PRRM1^BD5). […] Cells were harvested by centrifugation and stored at −80 °C prior to purification. […] The Lysis buffers were as follows: for SMARCA2^BD: 50 mM HEPES, 500 mM sodium chloride, 5% glycerol, 5 mM dithiothreitol (DTT); for SMARCA4^BD: 25 mM HEPES, 0.3 M sodium chloride, 5% glycerol, 10 mM DTT, pH 7.5; for PBRM1^BD5: 25 mM HEPES, 300 mM sodium chloride, 5% glycerol, 10 mM DTT, pH 7.8; in each case supplemented with complete protease inhibitors (Roche). Affinity purification was performed using Glutathione Sepharose 4B (GE Healthcare) in batch mode or on-column. […] For SMARCA2^BD, prior to TEV protease cleavage the eluted GST-tagged BD was first dialysed into desalting buffer (20 mM HEPES, 250 mM sodium chloride, pH 7.0 + 0.5% glycerol). Where TEV cleavage was performed in solution, a second affinity (GST-trap) column purification step was carried out to remove the GST-tag and uncleaved GST-tagged protein. Proteins were further purified by SEC (HiLoad Superdex-75, 16/600) (GE Healthcare) and stored in Storage buffer (for SMARCA2^BD: 20 mM HEPES, 150 mM sodium chloride, pH 7.5; for SMARCA4^BD: 10 mM HEPES, 0.5 M NaCl, 5% glycerol, pH 7.5; for PBRM1^BD5: 20 mM HEPES, 300 mM NaCl, 5 mM DTT, pH 7.8). For AlphaScreen assays, eluted GST-tagged BDs were purified directly by SEC in the respective storage buffers without TEV cleavage. All chromatography purification steps were performed either at room temperature or 4 °C using an ÄKTA FPLC purification system (GE Healthcare) or a plastic Econo-Pac column (Bio-Rad).
SPR data were acquired on Biacore 8K or T200 instruments (Cytiva). Target proteins were immobilised at 25 °C on CM5 chips by amine coupling (EDC/NHS, Cytiva) in HBS-P+ running buffer (pH 7.4), containing 2 mM TCEP. […] The reference surface was subsequently deactivated using 1 M ethanolamine. […] Biotinylated VCB was prepared as previously described[27]: in brief, the complex was mixed 1:1 with EZ-Link NHS–PEG4–biotin (Thermo Scientific) and incubated at room temperature for 1 h. Unreacted NHS-biotin was removed using a PD-10 desalting column (Cytiva) into 20 mM HEPES, pH 7.5, 150 mM sodium chloride and 1 mM DTT. The reference surface was generated by deactivating the EDC/NHS-treated surface with 1 M ethanolamine. All interaction experiments were done at 6 °C in running buffer (20 mM TRIS, pH 8.3, 150 mM potassium chloride, 2 mM magnesium chloride, 2 mM TCEP, 0.005% TWEEN 20, 1% dimethyl sulfoxide). For ternary complex measurements, a sensor chip surface with VCB immobilised was used (preparation as described above). Experiments were run in dual-inject mode with 10 µM SMARCA present during the injection and dissociation phase. Sensorgrams from reference surfaces and blank injections were subtracted from the raw data prior to data analysis using Biacore Insight software.

T2 sequence (P51531 1373-1493 isoform P51531-2): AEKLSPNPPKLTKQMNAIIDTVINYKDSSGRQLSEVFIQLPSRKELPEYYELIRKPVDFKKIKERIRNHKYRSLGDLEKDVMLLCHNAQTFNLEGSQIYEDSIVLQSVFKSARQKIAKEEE
VCB: PROTAC: SMARCA2^BD ternary complex (Homo sapiens, UniProt P40337+P51531), sequence (P51531 with tags, fused parts or gaps isoform P51531-2): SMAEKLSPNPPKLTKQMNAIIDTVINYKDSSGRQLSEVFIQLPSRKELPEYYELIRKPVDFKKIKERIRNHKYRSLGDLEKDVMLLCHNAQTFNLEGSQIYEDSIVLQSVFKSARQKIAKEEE
VCB: PROTAC: SMARCA2^BD ternary complex (Homo sapiens, UniProt P40337+P51531), sequence (P40337 54-213): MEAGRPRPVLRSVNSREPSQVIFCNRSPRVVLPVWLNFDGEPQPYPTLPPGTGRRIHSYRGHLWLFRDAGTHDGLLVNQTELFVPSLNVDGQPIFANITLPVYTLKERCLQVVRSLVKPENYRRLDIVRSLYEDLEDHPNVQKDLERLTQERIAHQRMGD
VCB: PROTAC: SMARCA2^BD ternary complex (Homo sapiens, UniProt P40337+P51531), sequence (Q15369 17-112 partner): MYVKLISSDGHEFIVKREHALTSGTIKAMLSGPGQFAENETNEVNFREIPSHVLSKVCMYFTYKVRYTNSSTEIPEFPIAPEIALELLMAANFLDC
VCB: PROTAC: SMARCA2^BD ternary complex (Homo sapiens, UniProt P40337+P51531), sequence (Q15370 1-104 partner): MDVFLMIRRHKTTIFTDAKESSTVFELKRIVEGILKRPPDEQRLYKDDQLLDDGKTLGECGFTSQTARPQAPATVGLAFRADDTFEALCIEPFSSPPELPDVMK
T1 sequence (P51531 with tags, fused parts or gaps isoform P51531-2): as the sequence (P51531 with tags, fused parts or gaps isoform P51531-2) above

Compound: Cc1ncsc1-c1ccc([C@@H](COCCN2CCC(c3ccc4c(c3)n(C3CCCC3)c3nc(=O)c5c(Br)cccc5n43)CC2)NC(=O)[C@@H]2C[C@@H](O)CN2C(=O)[C@@H](NC(=O)C2(F)CC2)C(C)(C)C)cc1 [compound 24]
- Mic. Stab. Human (Microsomal stability): 59 ± 0.4 % QH
- Mic. Stab. Human QH (Microsomal stability): 59.130% and 58.510%
- Mic. Stab. Mouse (Microsomal stability): 40 ± 2 % QH
- Mic. Stab. Mouse QH (Microsomal stability): 38.210% and 41.130%
- Mic. Stab. Rat (Microsomal stability): 31 % QH
- Mic. Stab. Rat QH (Microsomal stability): < 23.080% and 30.780%
- Solubility pH 4.5 (Solubility testing; pH 4.5): <1.000 <1.000 ug/mL
- Solubility pH 6.8 (Solubility testing; pH 6.8): <1.000 <1.000 ug/mL

Compound: O=c1nc2n(C3CCCC3)c3cc(C4CCNCC4)ccc3n2c2cccc(Br)c12 [compound 4]
- EC50 ([1]; TR-FRET Ternary SMARCA2BD EC50 (PROTAC + VCB), TR-FRET competition for SMARCA2BD, + VCB, mean ± SD): 0.074 µM
- EC50 ([1]; Ternary SMARCA2 BD EC50 (PROTAC + VCB), PROTAC + VCB, individual replicates): 0.0735 µM
- Mic. Stab. Human (Microsomal stability): <24 % QH
- Mic. Stab. Human QH (Microsomal stability): <24.400%
- Mic. Stab. Mouse (Microsomal stability): <24 % QH
- Mic. Stab. Mouse QH (Microsomal stability): 25.670%
- Mic. Stab. Rat (Microsomal stability): <23 % QH
- Mic. Stab. Rat QH (Microsomal stability): <23.080%
- EC50 ([2]; SMARCA2 BD EC50, binary, PROTAC alone, individual replicates): 0.0884 µM
- EC50 ([2]; TR-FRET SMARCA2BD EC50, TR-FRET competition for SMARCA2BD, without VCB, mean ± SD): 0.088 µM
- cooperativity α (SMARCA2BD) [3]: 1.2
- Papp A→B at 1 µM ([4]; Caco-2, pH 7.4, Caco-2, a to b, read-out: Caco-2 Pab): 25.5 nm/s
- Papp B→A at 1 µM ([4]; Caco-2, pH 7.4, Caco-2, b to a, read-out: Caco-2 Pba): 326 nm/s
- efflux ratio at 2 h, 1 µM ([4]; Caco-2, pH 7.4, Caco-2, read-out: Caco-2 Efflux ratio): 12.8
- solubility at 24 h (Solubility testing; pH 4.5, aqueous buffer, pH 4.5, read-out: Solubility pH 4.5): 0.085 mg/mL (≈ 183 µM)
- solubility at 24 h (Solubility testing; pH 6.8, aqueous buffer, pH 6.8, read-out: Solubility pH 6.8): 0.079 mg/mL (≈ 170 µM)

Compound: CN1CCN(c2nc(=O)c3c(Cl)cccc3o2)CC1 [R = Cl]
- Kd (SMARCA2^BD): 25 µM

Compound: CN1CCN(c2nc(=O)c3ccccc3o2)CC1 [R = H]
- Kd (SMARCA2^BD): > 25 µM

Compound: CN1CCN(c2nc(=O)c3c(I)cccc3o2)CC1 [R = I]
- Kd (SMARCA2^BD): 18 µM

Compound: CN1CCN(c2nc(=O)c3c(Br)cccc3o2)CC1 [R = Br]
- Kd (SMARCA2^BD): 9 µM

Compound: CN1CCN(c2nc(=O)c3c(F)cccc3o2)CC1 [R = F]
- Kd (SMARCA2^BD): > 25 µM
